Data published in patent US12077503B2, “Substituted cyclic amides and their use as herbicides” (FMC CORPORATION, priority 2015, dated 2024).

Tests used:
Assay type in all cases: in vivo
Kochia (Kochia scoparia) [1] = experiment: Test A preemergence; details: for Plant response rating, Kochia: 125 g ai/ha; for Kochia plant response rating (0 to 100 scale, 0 is no effect, 100 is complete control): 500 g ai/ha, visual injury approx. 10 d
Excerpt: (§1) Seeds of plant species selected from barnyardgrass (Echinochloa crus-galli), Kochia (Kochia scoparia), ragweed (common ragweed, Ambrosia elatior), ryegrass, Italian (Italian ryegrass, Lolium multiflorum), crabgrass, large (Digitaria sanguinalis), giant foxtail (Setaria faberii), green foxtail (Setaria viridis), morningglory (Ipomoea spp.), pigweed (Amaranthus retroflexus), velvetleaf (Abutilon theophrasti), wheat (Triticum aestivum), and corn (Zea mays) were planted into a blend of loam soil and sand and treated preemergence with a directed soil spray using test chemicals formulated in anon-phytotoxic solvent mixture which included a surfactant.
(§2) At the same time, plants selected from these crop and weed species and also blackgrass (Alopecurus myosuroides), and Galium (catchweed bedstraw, Galium aparine) were planted in pots containing the same blend of loam soil and sand and treated with postemergence applications of test chemicals formulated in the same manner. Plants ranged in height from 2 to 10 cm and were in the one- to two-leaf stage for the postemergence treatment. Treated plants and untreated controls were maintained in a greenhouse for approximately 10 d, after which time all treated plants were compared to untreated controls and visually evaluated for injury. Plant response ratings, summarized in Table A, are based on a 0 to 100 scale where 0 is no effect and 100 is complete control. A dash (-) response means no test result.

[2] = tested on: barnyardgrass (Echinochloa crus-galli); experiment: Test A preemergence; details: for Plant response rating, Barnyardgrass: 125 g ai/ha; for Barnyardgrass plant response rating (0 to 100 scale, 0 is no effect, 100 is complete control): 500 g ai/ha, visual injury approx. 10 d
Excerpt: as §1, §2

[3] = tested on: giant foxtail (Setaria faberii); experiment: Test A preemergence; details: for Plant response rating, Foxtail, Giant: 125 g ai/ha; for Foxtail, Giant plant response rating (0 to 100 scale, 0 is no effect, 100 is complete control): 500 g ai/ha, visual injury approx. 10 d
Excerpt: as §1, §2

[4] = tested on: pigweed (Amaranthus retroflexus); experiment: Test A preemergence; details: for Plant response rating, Pigweed: 125 g ai/ha; for Pigweed plant response rating (0 to 100 scale, 0 is no effect, 100 is complete control): 500 g ai/ha, visual injury approx. 10 d
Excerpt: as §1, §2

[5] = tested on: ragweed (common ragweed, Ambrosia elatior); experiment: Test A preemergence; details: for Plant response rating, Ragweed: 125 g ai/ha; for Ragweed plant response rating (0 to 100 scale, 0 is no effect, 100 is complete control): 500 g ai/ha, visual injury approx. 10 d
Excerpt: as §1, §2

[6] = tested on: ryegrass, Italian (Italian ryegrass, Lolium multiflorum); experiment: Test A preemergence; details: for Plant response rating, Ryegrass, Italian: 125 g ai/ha; for Ryegrass, Italian plant response rating (0 to 100 scale, 0 is no effect, 100 is complete control): 500 g ai/ha, visual injury approx. 10 d
Excerpt: as §1, §2

[7] = tested on: Galium (catchweed bedstraw, Galium aparine); experiment: Test A postemergence; details: for Galium plant response rating: 125 g ai/ha, visual injury rating on 0 to 100 scale (0 no effect, 100 complete control), approx. 10 d; for Plant response rating, Galium: 500 g ai/ha
Excerpt: as §1, §2

Kochia (Kochia scoparia) [8] = experiment: Test A postemergence; details: for Kochia plant response rating: 125 g ai/ha, visual injury rating on 0 to 100 scale (0 no effect, 100 complete control), approx. 10 d; for Plant response rating, Kochia: 500 g ai/ha
Excerpt: as §1, §2

[9] = tested on: barnyardgrass (Echinochloa crus-galli); experiment: Test A postemergence; details: for Barnyardgrass plant response rating: 125 g ai/ha, visual injury rating on 0 to 100 scale (0 no effect, 100 complete control), approx. 10 d; for Plant response rating, Barnyardgrass: 500 g ai/ha
Excerpt: as §1, §2

[10] = tested on: blackgrass (Alopecurus myosuroides); experiment: Test A postemergence; details: for Blackgrass plant response rating: 125 g ai/ha, visual injury rating on 0 to 100 scale (0 no effect, 100 complete control), approx. 10 d; for Plant response rating, Blackgrass: 500 g ai/ha
Excerpt: as §1, §2

corn (Zea mays) = experiment: Test A postemergence; details: for Corn plant response rating: 125 g ai/ha, visual injury rating on 0 to 100 scale (0 no effect, 100 complete control), approx. 10 d; for Plant response rating, Corn: 500 g ai/ha
Excerpt: as §1, §2

[11] = tested on: giant foxtail (Setaria faberii); experiment: Test A postemergence; details: for Foxtail, Giant plant response rating: 125 g ai/ha, visual injury rating on 0 to 100 scale (0 no effect, 100 complete control), approx. 10 d; for Plant response rating, Foxtail, Giant: 500 g ai/ha
Excerpt: as §1, §2

[12] = tested on: pigweed (Amaranthus retroflexus); experiment: Test A postemergence; details: for Pigweed plant response rating: 125 g ai/ha, visual injury rating on 0 to 100 scale (0 no effect, 100 complete control), approx. 10 d; for Plant response rating, Pigweed: 500 g ai/ha
Excerpt: as §1, §2

[13] = tested on: ragweed (common ragweed, Ambrosia elatior); experiment: Test A postemergence; details: for Ragweed plant response rating: 125 g ai/ha, visual injury rating on 0 to 100 scale (0 no effect, 100 complete control), approx. 10 d; for Plant response rating, Ragweed: 500 g ai/ha
Excerpt: as §1, §2

[14] = tested on: ryegrass, Italian (Italian ryegrass, Lolium multiflorum); experiment: Test A postemergence; details: for Ryegrass, Italian plant response rating: 125 g ai/ha, visual injury rating on 0 to 100 scale (0 no effect, 100 complete control), approx. 10 d; for Plant response rating, Ryegrass, Italian: 500 g ai/ha
Excerpt: as §1, §2

[15] = tested on: wheat (Triticum aestivum); experiment: Test A postemergence; details: for Wheat plant response rating: 125 g ai/ha, visual injury rating on 0 to 100 scale (0 no effect, 100 complete control), approx. 10 d; for Plant response rating, Wheat: 500 g ai/ha
Excerpt: as §1, §2

[16] = Preemergence, visual injury after approximately 10 d, 0 to 100 scale where 0 is no effect and 100 is complete control
[17] = Postemergence, 0 to 100 scale where 0 is no effect and 100 is complete control
[18] = preemergence, 0 to 100 scale (0 no effect, 100 complete control)
[19] = postemergence, 0 to 100 scale, 0 no effect, 100 complete control

Row | SMILES | Kochia plant response rating (0 to 100 scale, 0 is no effect, 100 is complete control) (Kochia (Kochia scoparia) [1]; Preemergence) | Barnyardgrass plant response rating (0 to 100 scale, 0 is no effect, 100 is complete control) ([2]; Preemergence) | Foxtail, Giant plant response rating (0 to 100 scale, 0 is no effect, 100 is complete control) ([3]; Preemergence) | Pigweed plant response rating (0 to 100 scale, 0 is no effect, 100 is complete control) ([4]; Preemergence) | Ragweed plant response rating (0 to 100 scale, 0 is no effect, 100 is complete control) ([5]; Preemergence) | Ryegrass, Italian plant response rating (0 to 100 scale, 0 is no effect, 100 is complete control) ([6]; Preemergence) | Galium plant response rating ([7]; postemergence) | Kochia plant response rating (Kochia (Kochia scoparia) [8]; postemergence) | Barnyardgrass plant response rating ([9]; postemergence) | Blackgrass plant response rating ([10]; postemergence) | Corn plant response rating (corn (Zea mays); postemergence) | Foxtail, Giant plant response rating ([11]; postemergence) | Pigweed plant response rating ([12]; postemergence) | Ragweed plant response rating ([13]; postemergence) | Ryegrass, Italian plant response rating ([14]; postemergence) | Wheat plant response rating ([15]; postemergence) | further results
1 | O=C1NCC(c2cc(Br)cs2)C1C(=O)Nc1cccc(F)c1F (racemic) [Compound 510] | 50 | 80 | 70 | 0 | 50 | 10 | 0 | 0 | 60 | 0 | 0 | 10 | 0 | 0 | 0 | 0 | Plant response rating, Kochia (Kochia (Kochia scoparia) [1]; [16]): 30; Plant response rating, Barnyardgrass [2, 16]: 60; Plant response rating, Foxtail, Giant [3, 16]: 60; Plant response rating, Pigweed [4, 16]: 0; Plant response rating, Ragweed [5, 16]: 30; Plant response rating, Ryegrass, Italian [6, 16]: 0; Plant response rating, Galium [7, 17]: 0; Plant response rating, Kochia (Kochia (Kochia scoparia) [8]; [17]): 40; Plant response rating, Barnyardgrass [9, 17]: 70; Plant response rating, Blackgrass [10, 17]: 40; Plant response rating, Corn (corn (Zea mays); [17]): 0; Plant response rating, Foxtail, Giant [11, 17]: 30; Plant response rating, Pigweed [12, 17]: 0; Plant response rating, Ragweed [13, 17]: 30; Plant response rating, Ryegrass, Italian [14, 17]: 20; Plant response rating, Wheat [15, 17]: 0
2 | CC(=O)c1ccccc1NC(=O)C1C(=O)NCC1c1ccc(F)c(F)c1 (stereo not shown) [Compound 418] | 0 | 0 | 0 | 0 | 0 | 0 | 0 | 0 | 0 | 0 | 0 | 0 | 0 | 0 | 0 | 0 | Plant response rating, Kochia (Kochia (Kochia scoparia) [1]; [18]): 0; Plant response rating, Barnyardgrass [2, 18]: 0; Plant response rating, Foxtail, Giant [3, 18]: 0; Plant response rating, Pigweed [4, 18]: 0; Plant response rating, Ragweed [5, 18]: 0; Plant response rating, Ryegrass, Italian [6, 18]: 0; Plant response rating, Galium [7, 19]: 0; Plant response rating, Kochia (Kochia (Kochia scoparia) [8]; [19]): 0; Plant response rating, Barnyardgrass [9, 19]: 0; Plant response rating, Blackgrass [10, 19]: 0; Plant response rating, Corn (corn (Zea mays); [19]): 0; Plant response rating, Foxtail, Giant [11, 19]: 0; Plant response rating, Pigweed [12, 19]: 0; Plant response rating, Ragweed [13, 19]: 0; Plant response rating, Ryegrass, Italian [14, 19]: 0; Plant response rating, Wheat [15, 19]: 0
